In patent US6951887B2 (The Research Foundation of State University of New York, priority 1998, dated 2005):

Key:
B-16 melanoma [1] = assay: B-16 system, subcutaneous tumors; type: in vivo, mouse; conditions: 50 mg/kg IP twice daily plus twice daily injection directly into the tumor mass
Excerpt: (§1) The B-16 melanoma strain was introduced either subcutaneously or intraperitoneally into individuals of the C57/BL syngeneic mouse strain (7). When left untreated such mice develop massive tumors in the immediate area of injection as well as secondary metastases throughout the animal—including in the liver and the lungs. These malignant growths result in the early death of the animals. Moreover, the resulting malignant growths are made up of darkly pigmented malignant melanocytes—making their assessment convenient and highly reliable. We will henceforth refer to this as the “B-16 system”.
Second, a group of animals were injected at a subcutaneous site with B-16 cells. […] As this time, one group oL animals (experimentals) began a twice-daily series of injections of the bis-acetyl lipoate derivative (100 mg/kg in 100 ul of isotonic saline) and a second set (controls) of corresponding injections of the saline solvent alone. [See EXAMPLES 2, 8 and 11 for the details of bis-acetyl lipoate derivative.]
Third, in several animals subcutaneous tumors were produced as in the preceding paragraph. After the tumors had grown to visible, palpable size, these animals received both a twice daily IP (systemic) dose of 50 mg/kg of bis-benzoyl lipoate as well as a twice daily direct injection a second dose of the same volume directly into the tumor mass.

Saos 2 (Bone) = assay: killing of cultured cells, Saos 2; type: cell-based; design: key: “+” indicates that the cells were killed by treatment; “−” indicates that they were not; “+/−” indicates a slow marginal response seen only in a few special cases with fibroblasts experimentally transformed by introduction of the ras oncogene; conditions: compound at two to fourfold above its threshold killing concentration
Excerpt: (§2) Table 1: Summarized are the responses of cells in culture to killing by example members of the family of blocked lipoate derivatives that are the object of this invention as well as one control compound (dihydroxyoctanoic acid). At right is indicated the specific cell line followed by the tissue of origin of the cell line. Across the top are listed the specific compounds tested. Each blocked lipoate derivative was used at two to fourfold above its threshold killing concentration. [These concentrations range form 0.15 mM (60 ug/ml or 60 mg/kg) to 2.5 mM (800 ug/ml or 800 mg/kg) (see EXAMPLE 11).] […] “+/−” indicates a slow marginal response seen only in a few special cases with fibroblasts experimentally transformed by introduction of the ras oncogene (EXAMPLE 10).
(§3) First, each cell type to be tested was plated at low densities in the wells of a standard 6×24 well tissue culture plate. (Multiple wells are seeded for each cell type.)
(§4) Second, the cells were allowed to grow to moderate densities. Transformed cells are in contact and non-transformed cells are contact-inhibited under these conditions.
(§5) Third, the lipoate derivatives to be tested were added to individual wells. In these experiments each compound was added at two to fourfold above the threshold killing concentration for cancer cells (EXAMPLE 11).
(§6) Fourth, cells were monitored over the next several days.

LnCap (Prostate) = assay: killing of cultured cells, LnCap; type: cell-based; design: key: “+” indicates that the cells were killed by treatment; “−” indicates that they were not; “+/−” indicates a slow marginal response seen only in a few special cases with fibroblasts experimentally transformed by introduction of the ras oncogene; conditions: compound at two to fourfold above its threshold killing concentration
Excerpt: as §2, §3, §4, §5, §6

A549 (Lung) = assay: killing of cultured cells, A549; type: cell-based; design: key to cells killed by treatment: “+” indicates that the cells were killed by treatment; “−” indicates that they were not; “+/−” indicates a slow marginal response seen only in a few special cases with fibroblasts experimentally transformed by introduction of the ras oncogene
Excerpt: as §2, §3, §4, §5, §6

NIH 3T3 parental = assay: killing of cultured cells, parental NIH 3T3; type: cell-based; conditions: 120 ug/ml, ca. 24 hours of treatment
Excerpt: as §2, §3
Second, the cells were allowed to grow to moderate densities. Transformed cells are in contact and non-transformed cells are contact-inhibited under these conditions. […]
as §6
(§7) NIH-3T3 cells are relatively normal, noncancerous cells. However, if an activated allele of the ras oncogene is introduced into these cells they become highly malignant (cancerous) as assessed by several assays (REFERENCE).

MCF 7 (Breast) = assay: killing of cultured cells, MCF 7; type: cell-based; design: key: “+” indicates that the cells were killed by treatment; “−” indicates that they were not; “+/−” indicates a slow marginal response seen only in a few special cases with fibroblasts experimentally transformed by introduction of the ras oncogene; conditions: compound at two to fourfold above its threshold killing concentration
Excerpt: as §2, §3, §4, §5, §6

[2] = nonspecific toxicity by intraperitoneal injection; conditions: C57/BL, mouse, in vivo, ip
Description: (§8) (All studies described in this section were carried out by intraperitoneal (IP) injection into C57/BL mice.)

C57/BL mice = assay: nonspecific toxicity by intraperitoneal injection; conditions: mouse, in vivo, ip
Description: as §8

NIH 3T3 ras transformed = assay: killing of cultured cells, ras-transformed NIH 3T3 (T24); type: cell-based; design: key to cells killed by treatment: “+” indicates that the cells were killed by treatment; “−” indicates that they were not; “+/−” indicates a slow marginal response seen only in a few special cases with fibroblasts experimentally transformed by introduction of the ras oncogene
Excerpt: as §2, §3, §4, §5, §6, §7

Hep G2 = assay: killing of cultured cells, Hep G2; type: cell-based; design: key to cells killed by treatment: “+” indicates that the cells were killed by treatment; “−” indicates that they were not; “+/−” indicates a slow marginal response seen only in a few special cases with fibroblasts experimentally transformed by introduction of the ras oncogene
Excerpt: as §2, §3, §4, §5, §6

MDCK (Kidney) = assay: killing of cultured cells, MDCK; type: cell-based; conditions: 120 ug/ml, ca. 48 hours
Excerpt: as §2, §3, §4, §5, §6

B16 (Skin) = assay: killing of cultured cells, B16; type: cell-based; design: key: “+” indicates that the cells were killed by treatment; “−” indicates that they were not; “+/−” indicates a slow marginal response seen only in a few special cases with fibroblasts experimentally transformed by introduction of the ras oncogene; conditions: compound at two to fourfold above its threshold killing concentration
Excerpt: as §2, §3, §4, §5, §6

B-16 melanoma [3] = assay: B-16 system, cells injected IP; type: in vivo, mouse; conditions: 100 mg/kg IP twice a day, 16 days, B-16 cells IP in C57/BL mice
Excerpt: as §1
First, a group of mice were injected IP with B-16 cells. The injected group was divided at random into two equal subsets. One subset (experimental) was injected IP twice a day with 100 mg/kg of the bis-benzoyl lipoate member of the compound class in 200 ul of 10% ethanol. [See EXAMPLES 3, 8 and 11 for descriptions of bis-benzoyl lipoate.] The second subset (control) was injected with 200 ul of 10% ethanol alone.
After 16 days, the animals were examined—including by dissection where appropriate. The control animals had numerous, massive IP tumor masses.

In the case of `O=C(O)CCCCC(CCSC(=O)c1ccccc1)SC(=O)c1ccccc1` (centres unmarked) [bis-benzoyl lipoate, 6,8-bisbenzoylmercaptooctanoic acid], the “response of subcutaneous tumor” value (B-16 melanoma [1]) is reported as “especially robust response”, the “cells killed by treatment” value (Saos 2 (Bone)) is reported as “+” and the “cells killed by treatment” value (LnCap (Prostate)) is reported as “+”. For the same compound, the “cell killing, lung cancer cells (FIG. 1)” value (A549 (Lung); 120 ug/ml, ca. 48 hours) was “efficiently killed”, the “cells killed by treatment” value (A549 (Lung); A549, Lung, compound at two to fourfold above its threshold killing concentration) was “+” and the “effect on noncancerous parental NIH3T3 cells (FIG. 2)” value (NIH 3T3 parental) was “unaffected”. For the same compound, the “cells killed by treatment” value (MCF 7 (Breast)) was “+”, the LD50 [2] was ~1000 mg/kg and the maximum well-tolerated dose (C57/BL mice) was “ca. 500 mg/kg”. The “cancerous (transformed) cells killed (FIG. 2)” value (NIH 3T3 ras transformed; 120 ug/ml, 24 hours of treatment, T24 ras-transformed NIH3T3) was “ca. 50%”, the “killing of transformed cells (FIG. 2)” value (NIH 3T3 ras transformed; 120 ug/ml, ca. 48 hours of treatment) was “almost entirely irradicated” and the “cells killed by treatment” value (NIH 3T3 ras transformed; NIH 3T3 ras transformed, compound at two to fourfold above its threshold killing concentration) was “+”. For the same compound, the “cell killing, liver cancer cells (FIG. 1)” value (Hep G2; 120 ug/ml, ca. 48 hours) was “efficiently killed”, the “cells killed by treatment” value (Hep G2; Hep G2, compound at two to fourfold above its threshold killing concentration) was “+” and the “effect on normal (non-cancerous) kidney epithelial cell line (FIG. 1)” value (MDCK (Kidney)) was “not detectably affected”. For the same compound, the “cells killed by treatment” value (B16 (Skin)) was “+” and the “tumor mass relative to the control sample” value (B-16 melanoma [3]) was 30-50%.
